Starred links: 1 amine or outer side, 2 acyl side, 3 side chain; linkers in the order of their positions; H or OH if unused. Positions of bridges follow the written chain, without caps; N, C: chain ends. Non-standard residues stand in square brackets, D forms with d. Residues, ends and D or L forms follow the SMILES beside them. *: point of attachment. hTyr(3S-OH,4S-OH,3'-OSO3H) = N[C@H](C(=O)O)[C@H](O)[C@@H](O)c1ccc(O)c(OS(=O)(=O)O)c1; Orn(4R-OH,5R-OH) = O=C([C@H](C[C@@H](O)[C@@H](O)N[*:3])N[*:1])[*:2]; Pro(3S-OH,4S-Me) = C[C@H]1CN[C@H](C(=O)O)[C@H]1O; X1 = CCCCCOc1ccc(-c2cc(-c3ccc(C(=O)*)cc3)no2)cc1; Gln(3R-OH) = NC(=O)C[C@@H](O)[C@H](N)C(=O)O; Hyp = O=C(O)[C@@H]1C[C@@H](O)CN1
Test system: Rat Primary Kidney Glomerular Endothelial cells
Experiment: Oxygen and glucose deprivation followed by replenishment, cell survival (calcein AM), rat glomerular endothelial cells;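 on Survival rate (%): 100% is hypoxia control with glucose and 0% is untreated OGD control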
Type: cell-based
Experimental: Anidulafungin and micafungin were tested on Human Renal Glomerular Endothelial Cells (HRGEC, Innoprot P10665), on Human Renal Proximal Tubular Epithelial Cells (HRPTEpiC, Innoprot P10662), on Human Astrocytes (HA, caltag SC-1800), on Human Cardiac Microvascular Endothelial Cells (HCMEC, Caltag SC-6000), on Human Hepatic Sinusoidal Endothelial Cells (HHSEC, Caltag SC-5000), on Rat Primary Kidney Glomerular Endothelial cells (Cellbiologics, RN-6014G) and on Bovine Brain Microvascular Endothelial Cells (BBMEC, Caltag SC-B100).
In a first phase, these isolated, purified and cryopreserved cells are thawed and multiplied according to the supplier's recommendations in T75 or T175 flasks pre-coated with 2 μg of fibronectin/[…] (CORNING) for HRGEC, HCMEC, HHSEC and BBMEC, or 2 μg poly-L-lysin/cm^2 (Caltag SC-0403) for HRPTEpiC and HA, or 15 mL/flask 175 cm^2 gelatin-based solution (Cellbiologics) in the presence of endothelial cell supplemented growth medium ECM (P60104, INNOPROT, Caltag, SC-1001) for HRGEC, HCMEC, HHSEC, RPKGEC or BBMEC, or astrocyte cell supplemented growth medium AM (Caltag SC-1801) for HA or epithelial cell supplemented growth medium EpiCM (P60106, INNOPROT) for HRPTEpiC, at 37° C. under 5% CO2 and saturated humidity until their confluency. They are then harvested by trypsinization according to the method described by the supplier for exactly 5 minutes and then reseeded in new flasks a maximum of three times.
To carry out the oxygen and glucose deprivation test followed by their replenishment, the cells will be seeded in 96-well black plates with transparent flat bottom (GREINER). Once a sufficient number of cells has been obtained to allow seeding of 2000 to 15000 cells per well of 96-well plates depending on the cell type, the cells are seeded in these 96-well plates previously coated with an extracellular matrix as listed above for the flasks. The cells are cultured for 5 to 8 days according to the cell type, in the presence of the same growth medium as in the flask as described above except for HRGEC and HRPTEpiC for which DMEM (DUTSCHER) with 1 g/L of supplemented glucose is used, at 37° C. under 5% CO2 and saturated humidity to obtain confluency.
On the first day of oxygen and glucose deprivation, (5th, 6th, 7th or 8th day of culture), the culture conditions are drastically changed. The medium of all plates is removed and replaced by DMEM (DUTSCHER) medium without glucose and supplemented only with 1% penicillin-streptomycin (DUTSCHER). Anidulafungin or micafungin dissolved in dimethyl sulfoxide (DMSO) is then added to each well at the desired concentration, resulting in a maximum of 1% DMSO, and the plates are placed under hypoxia at <1% 02 and 5% CO2 at 37° C. for 24 hours of culture. Each compound was tested in a concentration range.
After 24 hours, the growth medium is changed and replaced by a richer medium, DMEM (DUTSCHER) at 1 g/L glucose and 2% FBS (INNOPROT) and 1% penicillin-streptomycin (DUTSCHER). These media will have been pre-equilibrated at 37° C. in advance. The cells are then returned to culture at 37° C. under 20% 02 and 5% CO2 for 22h.
After 22 hours of reoxygenation, the potential protective effect of anidulafungin or micafungin is measured by a cell viability test using calcein AM (CORNING), which is a dye substrate. The calcein AM can easily cross the cell membrane of the viable cells. The AM ester groups mask the part of the molecule that chelates calcium. Once inside the cells, the (non-fluorescent) calcein AM is hydrolyzed to (fluorescent) calcein by endogenous esterases. The resulting calcein molecule binds to calcium inside the cell and remains trapped inside the cell. These molecules emit strong green fluorescence when subjected to […] of a particular wavelength (495 nm). Since dead cells lack esterase activity, only living cells are labelled.
This cell viability test is performed in two steps. […]

CCCCCOc1ccc(-c2cc(-c3ccc(C(=O)N[C@H]4C[C@@H](O)[C@@H](O)NC(=O)[C@@H]5[C@@H](O)[C@@H](C)CN5C(=O)[C@H]([C@H](O)CC(N)=O)NC(=O)[C@H]([C@H](O)[C@@H](O)c5ccc(O)c(OS(=O)(=O)O)c5)NC(=O)[C@@H]5C[C@@H](O)CN5C(=O)[C@H]([C@@H](C)O)NC4=O)cc3)no2)cc1 [Micafungin, {5-[(1S,2S)-2-[(3S,6S,9S,11R,15S,18S,20R,21R,24S,25S,26S)-3-[(1R)-2-carbamoyl-1-hydroxyethyl]-11,20,21,25-tetrahydroxy-15-[(1R)-1-hydroxyethyl]-26-methyl-2,5,8,14,17,23-hexaoxo-18-[(4-{5-[4-(pentyloxy)phenyl]-1,2-oxazol-3-yl}benzene)amido]-1,4,7,13,16,22-hexaazatricyclo[22.3.0.0]heptacosan-6-yl]-1,2-dihydroxyethyl]-2-hydroxyphenyl}oxidanesulfonic acid] (X1-[Orn(4R-OH,5R-OH)]T[Hyp][hTyr(3S-OH,4S-OH,3'-OSO3H)][Gln(3R-OH)][Pro(3S-OH,4S-Me)]; lactam 1-C)
Globalfluo assay 1 ([Micafungin] log μM 0): 5417339 arbitrary units | Globalfluo assay 2 ([Micafungin] log μM 0): 3464807 arbitrary units | Globalfluo assay 3 ([Micafungin] log μM 0): 4867657 arbitrary units | Mean globalfluo ([Micafungin] log μM 0): 4583268 arbitrary units | Survival rate (%) ([Micafungin] log μM 0): 3% | Globalfluo assay 1 ([Micafungin] log μM 0.1760913): 8740776 arbitrary units | Globalfluo assay 2 ([Micafungin] log μM 0.1760913): 7981119 arbitrary units | Globalfluo assay 3 ([Micafungin] log μM 0.1760913): 5239211 arbitrary units | Mean globalfluo ([Micafungin] log μM 0.1760913): 7320369 arbitrary units | Survival rate (%) ([Micafungin] log μM 0.1760913): 14% | Globalfluo assay 1 ([Micafungin] log μM 0.30103): 3351615 arbitrary units | Globalfluo assay 2 ([Micafungin] log μM 0.30103): 4221516 arbitrary units | Globalfluo assay 3 ([Micafungin] log μM 0.30103): 4567106 arbitrary units | Mean globalfluo ([Micafungin] log μM 0.30103): 4046746 arbitrary units | Survival rate (%) ([Micafungin] log μM 0.30103): 0% | Globalfluo assay 1 ([Micafungin] log μM 0.39794): 5495171 arbitrary units | Globalfluo assay 2 ([Micafungin] log μM 0.39794): 5446233 arbitrary units | Globalfluo assay 3 ([Micafungin] log μM 0.39794): 3835973 arbitrary units | Mean globalfluo ([Micafungin] log μM 0.39794): 4925792 arbitrary units | Survival rate (%) ([Micafungin] log μM 0.39794): 4% | Globalfluo assay 1 ([Micafungin] log μM 0.4771213): 4782175 arbitrary units | Globalfluo assay 2 ([Micafungin] log μM 0.4771213): 7854686 arbitrary units | Globalfluo assay 3 ([Micafungin] log μM 0.4771213): 4782283 arbitrary units | Mean globalfluo ([Micafungin] log μM 0.4771213): 5806381 arbitrary units | Survival rate (%) ([Micafungin] log μM 0.4771213): 8% | Globalfluo assay 1 ([Micafungin] log μM 0.60206): 12878800 arbitrary units | Globalfluo assay 2 ([Micafungin] log μM 0.60206): 13369330 arbitrary units | Globalfluo assay 3 ([Micafungin] log μM 0.60206): 12813230 arbitrary units | Mean globalfluo ([Micafungin] log μM 0.60206): 13020453 arbitrary units | Survival rate (%) ([Micafungin] log μM 0.60206): 37% | Globalfluo assay 1 ([Micafungin] log μM 0.69897): 14177330 arbitrary units | Globalfluo assay 2 ([Micafungin] log μM 0.69897): 11602990 arbitrary units | Globalfluo assay 3 ([Micafungin] log μM 0.69897): 9423392 arbitrary units | Mean globalfluo ([Micafungin] log μM 0.69897): 11734571 arbitrary units | Survival rate (%) ([Micafungin] log μM 0.69897): 31% | Globalfluo assay 1 ([Micafungin] log μM 0.7781513): 5553126 arbitrary units | Globalfluo assay 2 ([Micafungin] log μM 0.7781513): 6638483 arbitrary units | Globalfluo assay 3 ([Micafungin] log μM 0.7781513): 7505823 arbitrary units | Mean globalfluo ([Micafungin] log μM 0.7781513): 6565811 arbitrary units | Survival rate (%) ([Micafungin] log μM 0.7781513): 11% | Globalfluo assay 1 ([Micafungin] log μM 0.845098): 7968558 arbitrary units | Globalfluo assay 2 ([Micafungin] log μM 0.845098): 13328410 arbitrary units | Globalfluo assay 3 ([Micafungin] log μM 0.845098): 4864200 arbitrary units | Mean globalfluo ([Micafungin] log μM 0.845098): 8720389 arbitrary units | Survival rate (%) ([Micafungin] log μM 0.845098): 19% | Globalfluo assay 1 ([Micafungin] log μM 0.90309): 16467230 arbitrary units | Globalfluo assay 2 ([Micafungin] log μM 0.90309): 5461253 arbitrary units | Globalfluo assay 3 ([Micafungin] log μM 0.90309): 9297072 arbitrary units | Mean globalfluo ([Micafungin] log μM 0.90309): 10408518 arbitrary units | Survival rate (%) ([Micafungin] log μM 0.90309): 26% | Globalfluo assay 1 ([Micafungin] log μM 0.9542425): 17001920 arbitrary units | Globalfluo assay 2 ([Micafungin] log μM 0.9542425): 15398170 arbitrary units | Globalfluo assay 3 ([Micafungin] log μM 0.9542425): 11994410 arbitrary units | Mean globalfluo ([Micafungin] log μM 0.9542425): 14798167 arbitrary units | Survival rate (%) ([Micafungin] log μM 0.9542425): 44% | Globalfluo assay 1 ([Micafungin] log μM 1): 24112850 arbitrary units | Globalfluo assay 2 ([Micafungin] log μM 1): 13345620 arbitrary units | Globalfluo assay 3 ([Micafungin] log μM 1): 20572260 arbitrary units | Mean globalfluo ([Micafungin] log μM 1): 19343577 arbitrary units | Survival rate (%) ([Micafungin] log μM 1): 62% | Globalfluo assay 1 ([Micafungin] log μM 1.041393): 8422700 arbitrary units | Globalfluo assay 2 ([Micafungin] log μM 1.041393): 12678250 arbitrary units | Globalfluo assay 3 ([Micafungin] log μM 1.041393): 11578770 arbitrary units | Mean globalfluo ([Micafungin] log μM 1.041393): 10893240 arbitrary units | Survival rate (%) ([Micafungin] log μM 1.041393): 28% | Globalfluo assay 1 ([Micafungin] log μM 1.079181): 11147190 arbitrary units | Globalfluo assay 2 ([Micafungin] log μM 1.079181): 19591720 arbitrary units | Globalfluo assay 3 ([Micafungin] log μM 1.079181): 15002320 arbitrary units | Mean globalfluo ([Micafungin] log μM 1.079181): 15247077 arbitrary units | Survival rate (%) ([Micafungin] log μM 1.079181): 46%

Reference: patent US11458189B2, “Cytoprotective drugs” (BALMES TRANSPLANTATION, priority 2017, dated 2022)
